Reference: US11725015B2, “Macrocyclic compound and uses thereof” (President and Fellows of Harvard College, priority 2017, dated 2023)

Legend:
[1] = in comparison with Halichondrin B; cited from earlier work
[2] = various in vivo models; cited from earlier work
[3] = not only in vitro but also in vivo; cited from earlier work
[4] = system: HSC-2-Luc orthotopic transplantation (tongue); assay: HSC-2 orthotopic transplantation mouse model; format: in vivo, mice; settings: Q7D×3

For `C=C1C[C@@H]2CC[C@@]34C[C@@]5(O)O[C@H]6[C@@H](O3)[C@H]3O[C@H](CC[C@@H]3O[C@H]6[C@H]5O4)CC(=O)O[C@@H]3[C@@H](C)[C@@H]4O[C@@H]5C[C@]6(C[C@@H]7O[C@]8(C[C@H](C)[C@@H]9O[C@H]([C@@H](O)C[C@@H](O)CO)C[C@@H]9O8)C[C@H](C)[C@@H]7O6)O[C@@H]5C[C@@H]4O[C@H]3C[C@H]3O[C@@H](CC[C@@H]1O2)C[C@@H](C)C3=C` [Halichondrin C], the “stability in aqueous solution” value [1] is given as “unstable in aqueous solution” and the activity in vivo [2] is given as “active in various in vivo models”.
In the case of `C=C1C[C@@H]2CC[C@@]34C[C@H]5O[C@H]6[C@@H](O3)[C@H]3O[C@H](CC[C@@H]3O[C@H]6[C@H]5O4)CC(=O)O[C@@H]3[C@@H](C)[C@@H]4O[C@@H]5C[C@]6(CC7O[C@@]8(C[C@H](C)C7O6)C[C@H](C)[C@@H]6O[C@H](CC(=O)O)[C@H](O)C[C@@H]6O8)O[C@@H]5CC4O[C@H]3C[C@H]3O[C@@H](CC[C@@H]1O2)C[C@@H](C)C3=C` (some centres unmarked) [Norhalichondrin B], the “anti-tumor activity compared with Halichondrin B” value [3] is given as “much weaker than Halichondrin B”.
For `N.N.[Cl][Pt][Cl]` [Cisplatin, cisplatin, reference compound], the “ILS (%)” value ([4]; 5 mg/kg intravenously + cetuximab 5 mg/kg) was 150% and the “ILS (%)” value ([4]; 5 mg/kg intravenously, without cetuximab) was 0%.
